The NIST ThermoML archive (doi:10.1021/acs.jced.8b00692)
Where “and” joins values, the source holds several entries; their conditions need not be identical. Identical values can stand only once.

Experiments:
[1] = Liquid; for viscosity: Concentric cylinders viscometry; for speed of sound: Single path-length method; for mass density: Vibrating tube method
[2] = xn = mol fraction of the nth substance listed; details: 102 kPa, Liquid, x2 = 0; for viscosity: Concentric cylinders viscometry; for speed of sound: Frequency=3 MHz, Single path-length method; for mass density: Vibrating tube method

CCCC1CCCCC1 [1-cyclohexylpropane]
[1], 102 kPa
Details | mass density [kg/m3] | viscosity [mPa·s]
293.15 K | 793.54 | 0.996
303.15 K | 785.73 | 0.86
313.15 K | 777.9 | 0.75
323.15 K | 770.04 | 0.663
333.15 K | 762.12 | 0.584
343.15 K | 754.2 | 0.544
353.15 K | 746.1 | 0.477
363.15 K | 738 | 0.452

[1], 102 kPa, Frequency=3 MHz
Details | speed of sound [m/s]
293.15 K | 1307.8
303.15 K | 1266.2
313.15 K | 1225.6
323.15 K | 1185.9
333.15 K | 1147.3

CCCCCCCCCCC1CCCCC1 [decylcyclohexane]
[1], 102 kPa
Details | mass density [kg/m3] | viscosity [mPa·s]
293.15 K | 818.55 | 5.32
303.15 K | 811.78 | 4.09
313.15 K | 805.02 | 3.23
323.15 K | 798.27 | 2.62
333.15 K | 791.5 | 2.16
343.15 K | 784.8 | 1.82
353.15 K | 778 | 1.55
363.15 K | 771.2 | 1.34
373.15 K | 764.4 | 1.17

[1], 102 kPa, Frequency=3 MHz
Details | speed of sound [m/s]
293.15 K | 1406.7
303.15 K | 1369.4
313.15 K | 1333
323.15 K | 1297.5
333.15 K | 1262.9

CCCCCCCCCCCCC1CCCCC1 [dodecylcyclohexane]
[1], 102 kPa
Details | mass density [kg/m3] | viscosity [mPa·s]
293.15 K | 822.31 | 7.76
303.15 K | 815.65 | 5.81
313.15 K | 809.01 | 4.48
323.15 K | 802.37 | 3.55
333.15 K | 795.74 | 2.88
343.15 K | 789.1 | 2.39
353.15 K | 782.5 | 2.01
363.15 K | 775.9 | 1.72
373.15 K | 769.2 | 1.48

[1], 102 kPa, Frequency=3 MHz
Details | speed of sound [m/s]
293.15 K | 1423.3
303.15 K | 1386.3
313.15 K | 1350.4
323.15 K | 1315.2
333.15 K | 1281.1

CCCCCCCC1CCCCC1 [heptylcyclohexane]
[1], 102 kPa
Details | mass density [kg/m3] | viscosity [mPa·s]
293.15 K | 810.99 | 2.8
303.15 K | 803.96 | 2.26
313.15 K | 796.93 | 1.86
323.15 K | 789.89 | 1.56
333.15 K | 782.83 | 1.33
343.15 K | 775.8 | 1.15
353.15 K | 768.7 | 0.993
363.15 K | 761.6 | 0.892
373.15 K | 754.4 | 0.776

[1], 102 kPa, Frequency=3 MHz
Details | speed of sound [m/s]
293.15 K | 1374.4
303.15 K | 1336.1
313.15 K | 1298.7
323.15 K | 1262.1
333.15 K | 1226.5

CCCCCCCCCCCCCCCC [hexadecane]
[1]
Details | mass density, 102 kPa | speed of sound, 101.33 kPa [m/s] | viscosity, 102 kPa [mPa·s]
293.15 K | 773.37 kg/m3 | 1357.4 | 3.47
303.15 K | 766.43 kg/m3 | 1319.6 | 2.76
313.15 K | 759.51 kg/m3 | 1282.9 | 2.24
323.15 K | 752.61 kg/m3 | 1247 | 1.86
333.15 K | 745.69 kg/m3 | 1212.1 | 1.56
343.15 K | 738.78 kg/m3 and 738.8 kg/m3 | – | 1.35
353.15 K | 731.9 kg/m3 | – | 1.15
363.15 K | 724.9 kg/m3 | – | 1.02
373.15 K | 717.9 kg/m3 | – | 0.885

CCCCCCCCCCCCCCCC [hexadecane] + CCCC1CCCCC1
[2]
Details | mass density [kg/m3] | speed of sound [m/s] | viscosity [mPa·s]
293.15 K | 773.37 | 1357.4 | 3.47
303.15 K | 766.43 | 1319.6 | 2.76
313.15 K | 759.51 | 1282.9 | 2.24
323.15 K | 752.61 | 1247 | 1.86
333.15 K | 745.69 | 1212.1 | 1.56
343.15 K | 738.78 | – | 1.35
353.15 K | 731.9 | – | 1.15
363.15 K | 724.9 | – | 1.02

CCCCCCCCCCCCCCCC [hexadecane] + CCCCCCC1CCCCC1
[2]
Details | mass density [kg/m3] | viscosity [mPa·s]
293.15 K | 773.37 | 3.47
303.15 K | 766.43 | 2.76
313.15 K | 759.51 | 2.24
323.15 K | 752.61 | 1.86
333.15 K | 745.69 | 1.56
343.15 K | 738.8 | 1.35
353.15 K | 731.9 | 1.15
363.15 K | 724.9 | 1.02

CCCCCCCCCCCCCCCC [hexadecane] + CCCCCCCC1CCCCC1
[2]
Details | mass density [kg/m3] | viscosity [mPa·s]
293.15 K | 773.37 | 3.47
303.15 K | 766.43 | 2.76
313.15 K | 759.51 | 2.24
323.15 K | 752.61 | 1.86
333.15 K | 745.69 | 1.56
343.15 K | 738.8 | 1.35
353.15 K | 731.9 | 1.15
363.15 K | 724.9 | 1.02
373.15 K | 717.9 | 0.885

CCCCCCCCCCCCCCCC [hexadecane] + CCCCCCCCC1CCCCC1
[2]
Details | mass density [kg/m3] | viscosity [mPa·s]
293.15 K | 773.37 | 3.47
303.15 K | 766.43 | 2.76
313.15 K | 759.51 | 2.24
323.15 K | 752.61 | 1.86
333.15 K | 745.69 | 1.56
343.15 K | 738.8 | 1.35
353.15 K | 731.9 | 1.15
363.15 K | 724.9 | 1.02
373.15 K | 717.9 | 0.885

CCCCCCCCCCCCCCCC [hexadecane] + CCCCCCCCCC1CCCCC1
[2]
Details | mass density [kg/m3] | viscosity [mPa·s]
293.15 K | 773.37 | 3.47
303.15 K | 766.43 | 2.76
313.15 K | 759.51 | 2.24
323.15 K | 752.61 | 1.86
333.15 K | 745.69 | 1.56
343.15 K | 738.8 | 1.35
353.15 K | 731.9 | 1.15
363.15 K | 724.9 | 1.02
373.15 K | 717.9 | 0.885

CCCCCCCCCCCCCCCC [hexadecane] + CCCCCCCCCCC1CCCCC1
[2]
Details | mass density [kg/m3] | viscosity [mPa·s]
293.15 K | 773.37 | 3.47
303.15 K | 766.43 | 2.76
313.15 K | 759.51 | 2.24
323.15 K | 752.61 | 1.86
333.15 K | 745.69 | 1.56
343.15 K | 738.8 | 1.35
353.15 K | 731.9 | 1.15
363.15 K | 724.9 | 1.02
373.15 K | 717.9 | 0.885

CCCCCCCCCCCCCCCC [hexadecane] + CCCCCCCCCCCCC1CCCCC1
[2]
Details | mass density [kg/m3] | viscosity [mPa·s]
293.15 K | 773.37 | 3.47
303.15 K | 766.43 | 2.76
313.15 K | 759.51 | 2.24
323.15 K | 752.61 | 1.86
333.15 K | 745.69 | 1.56
343.15 K | 738.8 | 1.35
353.15 K | 731.9 | 1.15
363.15 K | 724.9 | 1.02
373.15 K | 717.9 | 0.885

CCCCCCC1CCCCC1 [hexylcyclohexane]
[1], 102 kPa
Details | mass density [kg/m3] | viscosity [mPa·s]
293.15 K | 807.71 | 2.2
303.15 K | 800.56 | 1.81
313.15 K | 793.4 | 1.51
323.15 K | 786.22 | 1.29
333.15 K | 779.02 | 1.09
343.15 K | 771.8 | 0.964
353.15 K | 764.6 | 0.847
363.15 K | 757.3 | 0.758

[1], 102 kPa, Frequency=3 MHz
Details | speed of sound [m/s]
293.15 K | 1361
303.15 K | 1322.1
313.15 K | 1284.2
323.15 K | 1247.1
333.15 K | 1211

CCCCCCCCCC1CCCCC1 [nonylcyclohexane]
[1], 102 kPa
Details | mass density [kg/m3] | viscosity [mPa·s]
293.15 K | 816.41 | 4.34
303.15 K | 809.57 | 3.39
313.15 K | 802.74 | 2.72
323.15 K | 795.8 | 2.22
333.15 K | 789.05 | 1.85
343.15 K | 782.2 | 1.57
353.15 K | 775.4 | 1.35
363.15 K | 768.5 | 1.2
373.15 K | 761.6 | 1.03

[1], 102 kPa, Frequency=3 MHz
Details | speed of sound [m/s]
293.15 K | 1397.2
303.15 K | 1359.6
313.15 K | 1322.9
323.15 K | 1287.1
333.15 K | 1252.2

CCCCCCCCC1CCCCC1 [octylcyclohexane]
[1], 102 kPa
Details | mass density [kg/m3] | viscosity [mPa·s]
293.15 K | 814.14 | 3.52
303.15 K | 807.22 | 2.79
313.15 K | 800.29 | 2.27
323.15 K | 793.36 | 1.88
333.15 K | 786.42 | 1.58
343.15 K | 779.5 | 1.36
353.15 K | 772.5 | 1.16
363.15 K | 765.5 | 1.04
373.15 K | 758.5 | 0.899

[1], 102 kPa, Frequency=3 MHz
Details | speed of sound [m/s]
293.15 K | 1387
303.15 K | 1349.1
313.15 K | 1312.1
323.15 K | 1275.9
333.15 K | 1240.5

CCCCCC1CCCCC1 [pentylcyclohexane]
[1], 102 kPa
Details | mass density [kg/m3] | viscosity [mPa·s]
293.15 K | 804.11 | 1.7
303.15 K | 796.8 | 1.42
313.15 K | 789.47 | 1.21
323.15 K | 782.12 | 1.04
333.15 K | 774.74 | 0.895
343.15 K | 767.3 | 0.799
353.15 K | 759.9 | 0.709
363.15 K | 752.4 | 0.637

[1], 102 kPa, Frequency=3 MHz
Details | speed of sound [m/s]
293.15 K | 1345.9
303.15 K | 1306.4
313.15 K | 1267.8
323.15 K | 1230.1
333.15 K | 1193.4
